# Measured values reported in PMC4506051, “Pharmacokinetic Profiles of Active Ingredients and Its Metabolites Derived from Rikkunshito, a Ghrelin Enhancer, in Healthy Japanese Volunteers: A Cross-Over, Randomized Study” (PLoS ONE, 2015).
# Read-outs that look alike come from different tables or passages of the source.
# What was measured:
# [1] = test system: cisplatin-induced anorexia model; details: cited from earlier work
# [2] = test system: ghrelin secretion; details: cited from earlier work
# [3] = Exploratory trial: ingredients in β-glucuronidase (enzyme)-treated plasma; format: in vivo, human; details: rikkunshito 7.5 g; for concentration at 0.5 h / concentration at 1 h / concentration at 2 h / concentration at 4 h / concentration at 8 h: plasma; for concentration at 0.5 h / concentration at 1 h / concentration at 2 h / concentration at 4 h / concentration at 8 h / Plasma concentration in enzyme-treated plasma, 0 h: β-glucuronidase-treated, mean ± S.D., n = 4; for concentration at 2 h: read-out: Plasma concentration in enzyme-treated plasma, 2 h; for concentration at 4 h: read-out: Plasma concentration in enzyme-treated plasma, 4 h; for concentration at 8 h: read-out: Plasma concentration in enzyme-treated plasma, 8 h; for Plasma concentration in enzyme-treated plasma, 0 h: 0 h (preadministration)
# Procedure: In the first exploratory trial, 20-mL blood samples were collected from the cutaneous vein in the subjects’ forearm via a blood sampling tube that contained heparin at 0 (preadministration), 0.5, 1, 2, 4, and 8 h after a single oral administration of rikkunshito (Lot E24652). The dose of rikkunshito used in this trial was 7.5 g/day, which is the clinical daily dose, to widely explore rikkunshito-derived ingredients that enter the blood. Along with plasma, urine samples were collected at three points: between dinner and bedtime (preadministration), between 0 and 4 h after administration, and between 4 and 8 h after administration. The blood was immediately centrifuged at 1700 ×g for 10 min to obtain plasma. Plasma and urine fractions were stored at −80°C or lower until analysis.
# For quantification of 30 ingredients other than atractylodin and synephrine, 25 µL of standard solution or methanol was added to 500 µL plasma or urine samples followed by mixing. Atractylenolide III or digoxin (IS) solution (50 μL) was added to the solutions followed by mixing. For urine, 400 µL of blank plasma was added to the solutions. Ammonium acetate solution (100 mM, 100 or 400 µL) was added to the solutions followed by mixing. For enzymatic treatment, plasma and urine samples were incubated with β-glucuronidase (100 units in 100 mM ammonium acetate) for 2 h at 37°C. A solid-phase cartridge (OASIS HLB, 30 mg/1cc, Waters) was conditioned with methanol and 10 mM ammonium acetate solution, and the samples were loaded onto the cartridge. The cartridge was washed water : methanol (9:1, v/v), and 1.5 mL of methanol and 30 µL of propylene glycol were added to the cartridge to elute the analytes. The mixtures were dried at 25°C under a stream of nitrogen gas. Furthermore, 100 μL of 10 mM ammonium acetate : methanol (8:2, v/v) was added to the dried samples followed by mixing and sonication. The solutions were filtered (0.22 µm) and followed by injection into the LC–MS/MS system. […] Those analytical conditions are summarized in S2 Table and S3 Table.
# [4] = Exploratory trial: plasma concentration of rikkunshito ingredients after single oral rikkunshito 7.5 g; format: in vivo; details: for Plasma concentration, 0 h: 0 h (preadministration), single oral rikkunshito 7.5 g; for Plasma concentration, 4 h: 4 h after single oral rikkunshito 7.5 g; for Plasma concentration, 2 h: 2 h after single oral rikkunshito 7.5 g
# Procedure, shortened: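 Healthy volunteers took a single oral rikkunshito dose of 7.5 g. Heparinized forearm blood was drawn at 0, 0.5, 1, 2, 4 and 8 h, with urine pooled pre-dose, 0–4 h and 4–8 h. Analytes were quantified in plasma by LC–MS/MS with internal standards, after solid-phase extraction and, where applied, 2 h β-glucuronidase treatment at 37°C.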
# [5] = Exploratory trial: ingredients in β-glucuronidase (enzyme)-treated urine; format: in vivo, human; details: β-glucuronidase-treated, mean ± S.D., n = 4
# Procedure, shortened: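 Healthy subjects took a single oral 7.5 g dose of rikkunshito; heparinised plasma drawn at 0–8 h and urine collected pre-dose, 0–4 h and 4–8 h. Samples incubated with β-glucuronidase (100 units) 2 h at 37°C, solid-phase extracted and quantified by LC–MS/MS.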
# [6] = test system: 5-HT2CR; parameters: method as in PMID 18439428; details: cited from earlier work
# [7] = Exploratory trial: amount of rikkunshito ingredients in urine; format: in vivo, human; details: mean ± S.D., n = 4; for Amount in urine, 0–4 h: 0–4 h after single oral rikkunshito 7.5 g; for Amount in urine, 4–8 h: 4–8 h after single oral rikkunshito 7.5 g; for Amount in urine, Pre: preadministration (between dinner and bedtime)
# Procedure, shortened: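 Subjects took single oral 7.5 g rikkunshito; urine collected pre-dose and 0–4 h and 4–8 h post-dose, stored at −80 °C or lower. Synephrine quantified by LC–MS/MS after plate cleanup with erythromycin IS; other ingredients after β-glucuronidase (2 h, 37 °C) and HLB solid-phase extraction.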
# [8] = test system: 5-HT2BR; parameters: method as in PMID 18439428; details: cited from earlier work
# [9] = Formation of ingredients derived from rikkunshito in formulation, blood, and urine (S11 Table summary); details: after rikkunshito administration, per ingredient in the formulation; for Formation of ingredients: form found in Urine: BQL = below the quantification limit
# [10] = test system: butyrylcholinesterase; details: cited from earlier work
# [11] = oral administration at a dose of 4.0 mg/kg
# [12] = 1 h after single oral rikkunshito 7.5 g, mean ± S.D., n = 4
# [13] = 8 h after single oral rikkunshito 7.5 g, mean ± S.D., n = 4
# [14] = 0.5 h after single oral rikkunshito 7.5 g, mean ± S.D., n = 4
SMILES,"concentration at 0.5 h ([3]; human, oral) [ng/mL]","concentration at 1 h ([3]; human, oral) [ng/mL]","concentration at 2 h ([3]; human, oral) [ng/mL]","concentration at 4 h ([3]; human, oral) [ng/mL]","concentration at 8 h ([3]; human, oral) [ng/mL]","Plasma concentration in enzyme-treated plasma, 0 h [3]","Plasma concentration, 0 h ([4]; mean ± S.D., n = 4)","Plasma concentration, 1 h [4, 12]","Plasma concentration, 4 h ([4]; mean ± S.D., n = 4)","Plasma concentration, 8 h [4, 13]","concentration at 0.5 h ([4]; human, in vivo, po) [ng/mL]","concentration at 2 h ([4]; human, in vivo, po) [ng/mL]","Amount in urine, 0–4 h [7]","Amount in urine, 4–8 h [7] [ng]","Amount in urine, Pre [7]",5-HT2BR inhibitory/antagonistic activity [8],Formation of ingredients: form found in Blood [9],Formation of ingredients: form found in Urine [9],"Plasma concentration, 0.5 h [4, 14] [ng/mL]","Plasma concentration, 2 h ([4]; mean ± S.D., n = 4) [ng/mL]",other results
O=C(/C=C/c1ccc(O)cc1)c1ccc(O)cc1O [Isoliquiritigenin],0.0872 ± 0.0221,0.0555 ± 0.0187,0.0606 ± 0.0774,0.0698 ± 0.0335,0.0238 ± 0.0354,BQL,BQL,BQL,BQL,BQL,0.0153,0.0171 ± 0.0343,741 ± 393 ng,1010 ± 451,0.688 ± 1.38 ng,inhibits,,,,,"Appetite following cisplatin administration [1, 11]: improves decreased appetite; Plasma ghrelin concentration following cisplatin administration [1, 11]: inhibits a decrease in plasma ghrelin concentration; Acylated ghrelin level in blood ([1]; oral administration, cisplatin-induced anorexia model): suppressed the decrease of the acylated ghrelin level in blood in a concentration-dependent manner; Known pharmacology activities: ghrelin secretion [2]: Ghrelin secretion promoting activity [14, 15]; Cmax ([3]; human, oral, β-glucuronidase-treated plasma, four subjects, read-out: C max in enzyme-treated plasma): 0.0872 ng/mL; Plasma concentration, 0.5 h ([4]; human, in vivo, po, 0.5 h): 0.0153 ± 0.018 ng/mL; Amount in enzyme-treated urine, 0–4 h ([5]; 0–4 h after rikkunshito 7.5 g): 3060 ± 348 ng; Amount in enzyme-treated urine, 4–8 h ([5]; 4–8 h after rikkunshito 7.5 g): 5630 ± 2210 ng; Amount in enzyme-treated urine, Pre ([5]; preadministration): 16.0 ± 17.4 ng; 5-HT2CR inhibitory activity [6]: inhibits; 5-HT2CR inhibitory activity ([6]; listed as isoliquiritigenin): inhibit; 5-HT2BR inhibitory/antagonistic activity ([8]; listed as isoliquiritigenin): inhibit"
O=C1C[C@@H](c2ccc(O)cc2)Oc2cc(O)cc(O)c21 [Naringenin],0.311 ± 0.211,0.261 ± 0.188,0.351 ± 0.311,0.861 ± 0.749,0.156 ± 0.234,BQL,,,,,0.0358 ± 0.0715,0.0813 ± 0.105,BQL,2380 ± 2940,BQL,most potent 5-HT2BR antagonistic activity among all rikkunshito ingredients,Naringenin Conjugate metabolites of naringenin^a,Naringenin,,,"concentration at 0 h ([4]; human, in vivo, po): 0.378 ± 0.755 ng/mL; concentration at 4 h ([4]; human, in vivo, po): 0.0715 ± 0.0831 ng/mL; Plasma concentration, 1 h ([4]; in vivo, po): BQL; Plasma concentration, 8 h ([4]; in vivo, po): BQL; Amount in urine, 4–8 h ([7]; listed as naringenin): 2,380 ng"
COc1ccc(-c2cc(=O)c3c(OC)c(OC)c(OC)c(OC)c3o2)cc1OC [Nobiletin],,,,,,,BQL,0.0282 ± 0.0389 ng/mL,BQL,BQL,,,,,,most potent 5-HT2BR antagonistic activity among all rikkunshito ingredients,Nobiletin,BQL,0.047 ± 0.0474,0.00545 ± 0.0109,
C=C(CC[C@@H](C(=O)O)[C@H]1[C@H](O)C[C@@]2(C)C3=C(CC[C@]12C)[C@@]1(C)CC[C@H](OC(C)=O)C(C)(C)[C@@H]1CC3)C(C)C [Pachymic acid],,,,,,,0.14 ± 0.184 ng/mL,0.127 ± 0.178 ng/mL,0.0905 ± 0.181 ng/mL,0.103 ± 0.129 ng/mL,,,,,,,Pachymic acid,BQL,0.126 ± 0.185,0.205 ± 0.0765,Butyrylcholinesterase inhibition [10]: inhibit butyrylcholinesterase; Known pharmacology activities: ghrelin metabolizing enzyme [10]: Ghrelin metabolizing enzyme inhibitory effect [17]
